Measurements from patent US20250049033A1, “PESTICIDALLY ACTIVE PYRIDAZINONE COMPOUNDS” (SYNGENTA CROP PROTECTION AG, priority 2021, published 2025).

What was measured:
Format in all cases: in vivo
Chilo suppressalis = experiment: Activity against Chilo suppressalis (striped rice stemborer), artificial diet, L2 larvae; conditions: 144 h, application rate 200 ppm, 6 days after infestation, vs untreated, read-out: control in at least one of the three categories (mortality, anti-feedant effect, or growth inhibition)
Procedure: Example B1: Activity Against Chilo suppressalis (Striped Rice Stemborer)
24-well microtiter plates with artificial diet were treated with aqueous test solutions prepared from 10′000 ppm DMSO stock solutions by pipetting. After drying, the plates were infested with L2 larvae (6-8 per well). The samples were assessed for mortality, anti-feeding effect, and growth inhibition in comparison to untreated samples 6 days after infestation. Control of Chilo suppressalis by a test sample is given when at least one of the categories mortality, anti-feedant effect, and growth inhibition is higher than the untreated sample.

Diabrotica balteata = experiment: Activity against Diabrotica balteata (corn root worm), maize sprouts, L2 larvae; conditions: 96 h, application rate 200 ppm, 4 days after infestation, vs untreated, read-out: control in at least one of the two categories (mortality or growth inhibition)
Procedure: Example B2: Activity Against Diabrotica balteata (Corn Root Worm)
Maize sprouts placed onto an agar layer in 24-well microtiter plates were treated with aqueous test solutions prepared from 10′000 ppm DMSO stock solutions by spraying. After drying, the plates were infested with L2 larvae (6 to 10 per well). The samples were assessed for mortality and growth inhibition in comparison to untreated samples 4 days after infestation.

Euschistus heros = experiment: Activity against Euschistus heros (neotropical brown stink bug), soybean leaves, N2 nymphs; conditions: 120 h, application rate 200 ppm, 5 days after infestation, vs untreated, read-out: effect in at least one of the two categories (mortality or growth inhibition)
Procedure: Example B3: Activity Against Euschistus heros (Neotropical Brown Stink Bug)
Soybean leaves on agar in 24-well microtiter plates were sprayed with aqueous test solutions prepared from 10′000 ppm DMSO stock solutions. After drying the leaves were infested with N2 nymphs. The samples were assessed for mortality and growth inhibition in comparison to untreated samples 5 days after infestation.

Myzus persicae [1] = experiment: Activity against Myzus persicae (green peach aphid), feeding/contact activity; conditions: foliar, 144 h, application rate 200 ppm, 6 days after infestation, sunflower leaf discs, mixed ages
Procedure: Example B5: Activity Against Myzus persicae (Green Peach Aphid). Feeding/Contact Activity
Sunflower leaf discs were placed onto agar in a 24-well microtiter plate and sprayed with aqueous test solutions prepared from 10′000 ppm DMSO stock solutions. After drying, the leaf discs were infested with an aphid population of mixed ages. The samples were assessed for mortality 6 days after infestation.

Myzus persicae [2] = experiment: Activity against Myzus persicae (green peach aphid), intrinsic activity; conditions: 120 h, test rate 12 ppm, 5 days after infestation, sucrose solution through Parafilm
Text: Example B6: Activity Against Myzus persicae (Green Peach Aphid). Intrinsic Activity
Test compounds prepared from 10′000 ppm DMSO stock solutions were applied by pipette into 24-well microtiter plates and mixed with sucrose solution. The plates were closed with a stretched Parafilm. A plastic stencil with 24 holes was placed onto the plate and infested pea seedlings were placed directly on the Parafilm. The infested plate was closed with a gel blotting paper and another plastic stencil and then turned upside down. The samples were assessed for mortality 5 days after infestation.

Plutella xylostella = experiment: Activity against Plutella xylostella (diamond back moth), artificial diet, eggs; conditions: 192 h, application rate 200 ppm, 8 days after infestation, vs untreated, read-out: control in at least one of the two categories (mortality or growth inhibition)
Procedure: Example B7: Activity Against Plutella xylostella (Diamond Back Moth)
24-well microtiter plates with artificial diet were treated with aqueous test solutions prepared from 10′000 ppm DMSO stock solutions by pipetting. After drying, Plutella eggs were pipetted through a plastic stencil onto a gel blotting paper and the plate was closed with it. The samples were assessed for mortality and growth inhibition in comparison to untreated samples 8 days after infestation. The following compounds gave an effect of at least 80% control in at least one of the two categories (mortality or growth inhibition) at an application rate of 200 ppm: P1, P2, P3, P4, P6, P7, P8, P9, P10, P11, P12, P13, P14, P15, P16, P17, P18, P19, P20, P21, P22, P23, P24, P25, P26, P27.

Spodoptera littoralis = experiment: Activity against Spodoptera littoralis (Egyptian cotton leaf worm), cotton leaf discs, L1 larvae; conditions: foliar, 72 h, application rate 200 ppm, 3 days after infestation, vs untreated, read-out: control in at least one of the three categories (mortality, anti-feedant effect, or growth inhibition)
Procedure: Example B8: Activity Against Spodoptera littoralis (Egyptian Cotton Leaf Worm)
Cotton leaf discs were placed onto agar in 24-well microtiter plates and sprayed with aqueous test solutions prepared from 10′000 ppm DMSO stock solutions. After drying the leaf discs were infested with five L1 larvae. The samples were assessed for mortality, anti-feeding effect, and growth inhibition in comparison to untreated samples 3 days after infestation. Control of Spodoptera littoralis by a test sample is given when at least one of the categories mortality, anti-feedant effect, and growth inhibition is higher than the untreated sample.

CCn1nc(-n2ncnc2[C@H](C)Nc2ncnc3c(C(F)(F)F)cc(Cl)cc23)ccc1=O [P19, 6-[5-[(1S)-1-[[6-chloro-8-(trifluoro-methyl)quinazolin-4-yl]amino]ethyl]-1,2,4-triazol-1-yl]-2-ethyl-pyridazin-3-one]
≥ 80%: percent control (mortality, anti-feedant effect or growth inhibition) at 200 ppm (Chilo suppressalis) | percent control (mortality or growth inhibition) at 200 ppm (Diabrotica balteata) | percent effect (mortality or growth inhibition) at 200 ppm (Euschistus heros) | mortality at 200 ppm (Myzus persicae [1]) | mortality at 12 ppm (Myzus persicae [2]) | percent control (mortality or growth inhibition) at 200 ppm (Plutella xylostella) | percent control (mortality, anti-feedant effect or growth inhibition) at 200 ppm (Spodoptera littoralis)

C[C@H](Nc1nc(Cl)nc2c(Cl)cc(C(F)(F)F)cc12)c1ncnn1-c1ccc(=O)n(C)n1 [P4, 6-[5-[(1S)-1-[[2,8-dichloro-6-(trifluoromethyl)quinazolin-4-yl]amino]ethyl]-1,2,4-triazol-1-yl]-2-methyl-pyridazin-3-one]
≥ 80%: percent control (mortality, anti-feedant effect or growth inhibition) at 200 ppm (Chilo suppressalis) | percent control (mortality or growth inhibition) at 200 ppm (Diabrotica balteata) | mortality at 200 ppm (Myzus persicae [1]) | percent control (mortality or growth inhibition) at 200 ppm (Plutella xylostella)

C[C@@H](c1ncnn1C1=NN(C)C(=O)CC1)N(C)c1ncnc2c(I)cc(Cl)cc12 [P26, 6-[5-[(1S)-1-[(6-chloro-8-iodo-quinazolin-4-yl)-methyl-amino]ethyl]-1,2,4-triazol-1-yl]-2-methyl-4,5-dihydropyridazin-3-one]
≥ 80%: percent control (mortality, anti-feedant effect or growth inhibition) at 200 ppm (Chilo suppressalis) | percent control (mortality or growth inhibition) at 200 ppm (Diabrotica balteata) | percent effect (mortality or growth inhibition) at 200 ppm (Euschistus heros) | mortality at 12 ppm (Myzus persicae [2]) | percent control (mortality or growth inhibition) at 200 ppm (Plutella xylostella) | percent control (mortality, anti-feedant effect or growth inhibition) at 200 ppm (Spodoptera littoralis)

CCn1nc(-n2ncnc2[C@H](C)Nc2ncnc3c(Cl)cc(C(F)(F)F)cc23)ccc1=O [P17, 6-[5-[(1S)-1-[[8-chloro-6-(trifluoromethyl)quinazolin-4-yl]amino]ethyl]-1,2,4-triazol-1-yl]-2-ethyl-pyridazin-3-one]
≥ 80%: percent control (mortality, anti-feedant effect or growth inhibition) at 200 ppm (Chilo suppressalis) | percent control (mortality or growth inhibition) at 200 ppm (Diabrotica balteata) | percent effect (mortality or growth inhibition) at 200 ppm (Euschistus heros) | mortality at 200 ppm (Myzus persicae [1]) | mortality at 12 ppm (Myzus persicae [2]) | percent control (mortality or growth inhibition) at 200 ppm (Plutella xylostella) | percent control (mortality, anti-feedant effect or growth inhibition) at 200 ppm (Spodoptera littoralis)

C[C@H](Nc1ncnc2c(C(F)(F)F)cc(Cl)cc12)c1ncnn1-c1ccc(=O)n(C)n1 [P2, 6-[5-[(1S)-1-[[6-chloro-8-(trifluoromethyl)quinazolin-4-yl]amino]ethyl]-1,2,4-triazol-1-yl]-2-methyl-pyridazin-3-one]
≥ 80%: percent control (mortality, anti-feedant effect or growth inhibition) at 200 ppm (Chilo suppressalis) | percent control (mortality or growth inhibition) at 200 ppm (Diabrotica balteata) | percent effect (mortality or growth inhibition) at 200 ppm (Euschistus heros) | mortality at 200 ppm (Myzus persicae [1]) | percent control (mortality or growth inhibition) at 200 ppm (Plutella xylostella) | percent control (mortality, anti-feedant effect or growth inhibition) at 200 ppm (Spodoptera littoralis)

C[C@H](Nc1ncnc2c(C(F)(F)F)cc(Cl)cc12)c1ncnn1C1=NN(C)C(=O)CC1 [P9, 6-[5-[(1S)-1-[[6-chloro-8-(trifluoro-methyl)quinazolin-4-yl]amino]ethyl]-1,2,4-triazol-1-yl]-2-methyl-4,5-di-hydropyridazin-3-one]
≥ 80%: percent control (mortality, anti-feedant effect or growth inhibition) at 200 ppm (Chilo suppressalis) | percent control (mortality or growth inhibition) at 200 ppm (Diabrotica balteata) | percent effect (mortality or growth inhibition) at 200 ppm (Euschistus heros) | mortality at 200 ppm (Myzus persicae [1]) | mortality at 12 ppm (Myzus persicae [2]) | percent control (mortality or growth inhibition) at 200 ppm (Plutella xylostella) | percent control (mortality, anti-feedant effect or growth inhibition) at 200 ppm (Spodoptera littoralis)

C[C@H](Nc1nc(=O)n(C)c2c(Cl)cc(C(F)(F)F)cc12)c1ncnn1-c1ccc(=O)n(C)n1 [P1, 8-chloro-1-methyl-4-[[(1S)-1-[2-(1-methyl-6-oxo-pyridazin-3-yl)-1,2,4-triazol-3-yl]ethyl]amino]-6-(trifluoromethyl)quinazolin-2-one]
≥ 80%: percent control (mortality, anti-feedant effect or growth inhibition) at 200 ppm (Chilo suppressalis) | percent effect (mortality or growth inhibition) at 200 ppm (Euschistus heros) | percent control (mortality or growth inhibition) at 200 ppm (Plutella xylostella)

C[C@@H](c1ncnn1-c1ccc(=O)n(C)n1)N(C)c1ncnc2c(Cl)cc(C(F)(F)F)cc12 [P23, 6-[5-[(1S)-1-[[8-chloro-6-(trifluoro-methyl)quinazolin-4-yl]-methyl-amino]ethyl]-1,2,4-triazol-1-yl]-2-methyl-pyr-idazin-3-one]
≥ 80%: percent control (mortality, anti-feedant effect or growth inhibition) at 200 ppm (Chilo suppressalis) | percent control (mortality or growth inhibition) at 200 ppm (Diabrotica balteata) | percent effect (mortality or growth inhibition) at 200 ppm (Euschistus heros) | mortality at 12 ppm (Myzus persicae [2]) | percent control (mortality or growth inhibition) at 200 ppm (Plutella xylostella) | percent control (mortality, anti-feedant effect or growth inhibition) at 200 ppm (Spodoptera littoralis)

C[C@H](Nc1ncnc2c(Cl)cc(I)cc12)c1ncnn1-c1ccc(=O)n(C)n1 [P20, 6-[5-[(1S)-1-[(8-chloro-6-iodo-quinazolin-4-yl)-amino]ethyl]-1,2,4-triazol-1-yl]-2-methyl-pyridazin-3-one]
≥ 80%: mortality at 200 ppm (Myzus persicae [1]) | percent control (mortality or growth inhibition) at 200 ppm (Plutella xylostella)

C[C@H](Nc1ncnc2c(I)cc(Cl)cc12)c1ncnn1-c1ccc(=O)n(C)n1 [P11, 6-[5-[(1S)-1-[(6-chloro-8-iodo-quinazolin-4-yl)-amino]ethyl]-1,2,4-triazol-1-yl]-2-methyl-pyridazin-3-one]
≥ 80%: percent control (mortality, anti-feedant effect or growth inhibition) at 200 ppm (Chilo suppressalis) | percent effect (mortality or growth inhibition) at 200 ppm (Euschistus heros) | mortality at 12 ppm (Myzus persicae [2]) | percent control (mortality or growth inhibition) at 200 ppm (Plutella xylostella) | percent control (mortality, anti-feedant effect or growth inhibition) at 200 ppm (Spodoptera littoralis)

C[C@@H](c1ncnn1-c1ccc(=O)n(C)n1)N(C)c1ncnc2c(Br)cc(Br)cc12 [P14, 6-[5-[(1S)-1-[(6,8-dibromoquinazolin-4-yl)-methyl-amino]ethyl]-1,2,4-triazol-1-yl]-2-methyl-pyridazin-3-one]
≥ 80%: percent control (mortality or growth inhibition) at 200 ppm (Diabrotica balteata) | percent effect (mortality or growth inhibition) at 200 ppm (Euschistus heros) | mortality at 200 ppm (Myzus persicae [1]) | mortality at 12 ppm (Myzus persicae [2]) | percent control (mortality or growth inhibition) at 200 ppm (Plutella xylostella) | percent control (mortality, anti-feedant effect or growth inhibition) at 200 ppm (Spodoptera littoralis)

C[C@H](Nc1ncnc2c(Br)cc(Br)cc12)c1ncnn1-c1ccc(=O)n(C)n1 [P18, 6-[5-[(1S)-1-[(6,8-dibromoquinazolin-4-yl)amino]ethyl]-1,2,4-triazol-1-yl]-2-methyl-pyridazin-3-one]
≥ 80%: percent control (mortality or growth inhibition) at 200 ppm (Plutella xylostella)

C[C@H](Nc1ncnc2c(I)cc(Cl)cc12)c1ncnn1C1=NN(C)C(=O)CC1 [P25, 6-[5-[(1S)-1-[(6-chloro-8-iodo-quinazolin-4-yl)amino]ethyl]-1,2,4-triazol-1-yl]-2-methyl-4,5-dihydropyridazin-3-one]
≥ 80%: percent control (mortality, anti-feedant effect or growth inhibition) at 200 ppm (Chilo suppressalis) | percent control (mortality or growth inhibition) at 200 ppm (Diabrotica balteata) | percent effect (mortality or growth inhibition) at 200 ppm (Euschistus heros) | mortality at 12 ppm (Myzus persicae [2]) | percent control (mortality or growth inhibition) at 200 ppm (Plutella xylostella) | percent control (mortality, anti-feedant effect or growth inhibition) at 200 ppm (Spodoptera littoralis)

C[C@H](Nc1ncnc2c(Cl)cc(C(F)(F)F)cc12)c1ncnn1-c1ccc(=O)n(C)n1 [P16, 6-[5-[(1S)-1-[[8-chloro-6-(trifluoro-methyl)quinazolin-4-yl]amino]ethyl]-1,2,4-triazol-1-yl]-2-methyl-pyrid-azin-3-one]
≥ 80%: percent control (mortality, anti-feedant effect or growth inhibition) at 200 ppm (Chilo suppressalis) | percent control (mortality or growth inhibition) at 200 ppm (Diabrotica balteata) | percent effect (mortality or growth inhibition) at 200 ppm (Euschistus heros) | mortality at 12 ppm (Myzus persicae [2]) | percent control (mortality or growth inhibition) at 200 ppm (Plutella xylostella) | percent control (mortality, anti-feedant effect or growth inhibition) at 200 ppm (Spodoptera littoralis)
